Data on twelve compounds can be found in patent US4889871A, “Alkoxy-substituted dihydrobenzopyran-2-carboxylate derivatives” (G. D. Searle & Co., priority 1988, dated 1989).

By IC50 is commonly meant the concentration needed to halve the response being measured. Read a low IC50 as higher potency.

Test [1] relates to human neutrophils. The test is described as follows: Human neutrophil degranulation assay (LTB4-induced, myeloperoxidase release). The class given is cell-based. Particulars: Table 1, LTB4 (5×10^-8 M). As to the method:
Neutrophils were purified from venous blood of normal human donors using standard techniques of dextran sedimentation, centrifugation on Ficoll-paque® (Pharmacia) or Histopaque® sterile solution (Sigma) and hypotonic lysis of erythrocytes (Boyum, A., Isolation of Leukocytes From Human Blood: Further Observations. Scand. J. Lab. Clin. Invest., 21 (Suppl. 97): 31, 1968). The purity of isolated neutrophils was >95%.
Neutrophil degranulation was determined by measuring the release of myeloperoxidase activity into the incubation medium. Neutrophils (3×10^6) in 1 ml HBSS solution were preincubated with cytochalasin B (5 μg) at 37° C. for 5 minutes, followed by preincubation with test compounds for 7 minutes. Neutrophils were then incubated for 2 to 20 minutes with either LTB4 (5×10^-8 M) or the chemotactic peptide f-met-leu-phe (5×10^-6 M) to induce degranulation. Following incubation, samples were centrifuged and myeloperoxidase was extracted from the cell pellets by sonication in phosphate buffer containing 0.4% Triton X-100. Triton X-100 was also added to the supernatants to a concentration of 0.4%. The supernatants and the pellet - extracts were then assayed spectrophotometrically for myeloperoxidase activity by determining the rate of decomposition of H2 O2 with o-dianisidine as hydrogen donor as described by Renlund, et al. (Renlund, D. G., MacFarlane, J. L., Christensen, R. D., Lynch, R. E., and Rothstein, G., A Quantitative And Sensitive Method For Measurement Of Myeloperoxidase, Clinical Research 28:75A, 1980). Myeloperoxidase activity released into the supernatant was expressed as the percent of the average total activity (pellet plus supernatant).

The next test concerns the target T1, LTB4 receptor (Homo sapiens, UniProt Q15722).
T1 construct: Neutrophils were purified from venous blood of normal human donors; endogenous in cells; host or cells: purified human blood neutrophils (intact cells)
The test is described as follows: LTB4 receptor binding assay ((3H) LTB4, human neutrophils). The note with it: Table 1. As to the method:
Neutrophils (4-6×10^6) in 1 ml Hanks' balanced salt solution containing 10 mM HEPES buffer (HBSS), pH 7.4 and 30 μM nordihydroguaiaretic acid were incubated with 0.6×10^-9 M (^3 H) LTB4 in the presence or absence of test compounds. The incubation was carried out at 0° C. for 45 minutes and terminated by adding 5 ml of ice-cold HBSS followed by rapid filtration of incubation mixture under vacuum through GF/C glass fiber filters. The filters were further washed with 10 ml HBSS and radioactivity was determined. Specific binding was defined as the difference between total binding and nonspecific binding which was not displaced by 10^-7 M unlabeled LTB4. All data refer to specific binding.

Test [2] relates to human neutrophils. The test can be described thus: Modified Boyden chamber chemotaxis (LTB4, human neutrophils). The class given is cell-based. Particulars: Neutrophil; for inhibition at 1 µM: 10^-6 M. The method, then:
Human neutrophils were isolated from citrated peripheral blood using standard techniques of dextran sedimentation, followed by centrifugation on Histopaque® sterile solution (Sigma) or Ficoll-paque® (Pharmacia) and hypotonic lysis of erythrocytes. A final cell suspension of 3.4×10^6 neutrophils/ml of HEPES-buffered Hanks balanced salt solution (HBSS, pH 7.3) was added to the upper well (0.8 ml) of a modified Boyden chamber (blind well). The lower well (0.2 ml), separated by a polycarbonate membrane (Nuleopore Corp.), contained HBSS or 3×10^-8 M LTB4 in the presence of absence of test compound. Following a 90 minute incubation at 37° C. in 5% CO2 -95% air, cells from the lower well were lysed and nuclei counted in a Model S-Plus-IV Coulter Counter. Percent inhibition was calculated from cell counts corrected for random migration by subtracting the mean of the HBSS control.

The target of a further test is T2, LTD4 receptor (Cavia porcellus, UniProt Q2NNR5).
T2 construct: from tissue; host or cells: lung membranes of male Hartley guinea pigs
T2 sequence (Q2NNR5 1-340): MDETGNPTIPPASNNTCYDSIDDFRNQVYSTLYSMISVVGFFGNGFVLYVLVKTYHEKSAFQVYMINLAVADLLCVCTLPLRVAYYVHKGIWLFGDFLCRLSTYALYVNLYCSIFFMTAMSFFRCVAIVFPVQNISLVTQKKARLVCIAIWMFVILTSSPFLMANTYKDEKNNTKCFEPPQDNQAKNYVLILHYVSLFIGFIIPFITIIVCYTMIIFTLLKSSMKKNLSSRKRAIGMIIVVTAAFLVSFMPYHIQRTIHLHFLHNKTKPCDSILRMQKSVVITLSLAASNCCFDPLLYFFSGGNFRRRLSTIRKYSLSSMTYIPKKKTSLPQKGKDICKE
The test can be described thus: LTD4 receptor binding assay using guinea pig lung membrane preparations. Particulars: for Receptor Binding LTD4 IC50: Table 1, results are from Table 3, 10^-5 M. As to the method:
MEMBRANE PREPARATIONS: For each membrane preparation, 10-11 male Hartley guinea pigs, weighing less than 350 gm, were sacrificed by guillotine. The lungs were rapidly removed and placed in ice-cold 50 mM Trisma 7.0 buffer. After all the lungs were collected, each was probed free of bronchial tissue to at least the level of tertiary branching as observed through a dissecting lamp. The tissue was minced with a razor blade on a damp paper towel and placed into fresh ice-cold Trisma 7.0 buffer. When all the tissues had been processed, they were pooled, drained and weighed. Nine volumes of cold buffer were added and the tissue was polytroned for 6-10 second bursts with a 1 minute cool down period in an ice bath between each burst. The homogenate was filtered through a gauze pad and centrifuged at 1085× g for 15 minutes at 4° C. Supernatants were saved and centrifuged at 40,000× g for 20 minutes at 4° C. This time, supernatants were discarded and the pellets were resuspended in 30-35 ml fresh Trisma 7.0 buffer by 1-10 second bursts with the polytron. The materials were centrifuged again at 40,000× g. Supernatants were again discarded. Each pellet was resuspended again with approximately 7 ml buffer. All this material was pooled into a 100 ml polypropylene container and stirred with a magnetic stirring bar. The tubes were rinsed with small amounts of buffer and the rinse was added to the membrane preparation. The homogenized membranes were aliquoted into 1.5 ml microfuge tubes and frozen at -70° C. Three aliquots were submitted for protein determinations by FPB (fluorescamine protein binding) assay.
Unless otherwise indicated, all binding experiments were performed in a final incubation volume of 250 μl. […] Both materials were received in solutions. […] Both solutions were brought to appropriate assay concentrations by dilution in assay buffer consisting of 50 mM Trisma 7.4 with 5 mM L-cysteine and 20 mM CaCl2. Membranes were also diluted with this assay buffer. […] Diluent was added to all other appropriate control tubes. Incubations were conducted for 30 minutes at 25° C. in a shaking water bath. Termination of the reaction was achieved by pouring the incubate over 2.5 cm Whatman GF/C filters soaked in assay buffer and set over the ports of Millipore filter vacuum manifolds. Filters were rinsed with 4 ml ice cold assay buffer 3 times. The filters were removed, placed in 10 ml Aquasol scintillation cocktail and allowed to cool in the dark for 2 hours prior to counting. All samples were corrected for background and isotope decay before converting DPM determination to mass.
These values were logit-transformed and linear regression was performed on the dose-response data. All dose-response sets used to calculate IC50 values contained data from 3-6 compound concentrations. […] IC50 values were calculated from the regression equation for the line.
male guinea pig lung homogenate which was aliquoted and stored at
-70° C. The particular preparation used to test the compounds of
Protein concentrations in these assays were adjusted
to provide aproximately 0.1 nM receptor in the presence of lnM ^3
HLTD4. Incubation was conducted for 30 min.
at 24° C. and filtration methods were used to separate bound from
tested were intially solubilized in DMSO. Each compound was evaluated at
dose of 10 μM (10^-5 M) in triplicate in 2 separate assays. The

The mark [3] stands for this setting: read-out: LTD4 Receptor Binding Activity, 10 μM.
The mark [4] stands for this setting: read-out: LTD4 Receptor Binding Percent Inhibition, Test #1, 10 μM, triplicate, 30 min, 24° C.
The mark [5] stands for this setting: read-out: LTD4 Receptor Binding Percent Inhibition, Test #2, 10 μM, triplicate, 30 min, 24° C.
Setting [6] is: read-out: Chemotaxis (Boyden) percent inhibition.

Read-outs that look alike come from different tables or passages of the source.

T1 sequence (Q15722 whole entry): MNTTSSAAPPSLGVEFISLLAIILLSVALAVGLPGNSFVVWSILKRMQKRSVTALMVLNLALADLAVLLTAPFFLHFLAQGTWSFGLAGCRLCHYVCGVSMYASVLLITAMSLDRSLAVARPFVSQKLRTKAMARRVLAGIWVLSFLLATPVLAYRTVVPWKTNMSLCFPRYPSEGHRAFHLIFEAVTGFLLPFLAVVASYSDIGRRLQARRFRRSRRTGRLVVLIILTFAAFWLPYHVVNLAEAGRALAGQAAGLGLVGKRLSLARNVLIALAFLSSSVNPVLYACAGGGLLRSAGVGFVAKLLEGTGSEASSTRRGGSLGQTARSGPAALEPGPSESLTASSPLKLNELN

Consider `CCCc1c(OC2CCC(Oc3ccc(C(C)=O)c(OC)c3CCC)C2)ccc2c1OC(C(=O)O)CC2` (stereo not drawn) [Example 4, 7-[[3-(4-acetyl-3-methoxy-2-propylphenoxy)cyclopentyl]oxy]-3,4-dihydro-8-propyl-2H-1-benzopyran-2-carboxylic acid], for which the half-inhibitory concentration (IC50) came out at 2700 nM with human neutrophils [1] and 5000 nM on LTB4 receptor. The inhibition at 0.01 µM with human neutrophils [2] (10^-8 M, read-out: Chemotaxis (Boyden) percent inhibition) amounted to 62%.

Regarding `CCCc1c(OCCCOc2ccc3c(c2)OC(C(=O)O)CC3)ccc(C(C)=O)c1OC` (stereo not drawn) [Example 6, 7-[3-(4-acetyl-3-methoxy-2-propylphenoxy)propoxy]-3,4-dihydro-2H-1-benzopyran-2-carboxylic acid], the “Receptor Binding LTD4 IC50” value at LTD4 receptor is reported as “Inactive”. Also, the inhibition at 10 µM at LTD4 receptor (setting [3]) is less than 45%; on LTD4 receptor (setting [4]), 1.63%; on LTD4 receptor (setting [5]) it was 26%. In addition, the IC50 was determined as 8000 nM with human neutrophils [1] and 2600 nM at LTB4 receptor. For the same compound, in the test on human neutrophils [2] (setting [6]), the inhibition at 1 µM came to 48%.

With `CCCc1c(OCCCOc2ccc(C(C)=O)c(OC)c2CCC)ccc2c1CC(C(=O)O)CC2` (stereo not drawn) [Example 18, 7-[3-(4-acetyl-3-methoxy-2-propylphenoxy)propoxy]-1,2,3,4-tetrahydro-8-propyl-2-naphthalenecarboxylic acid], the figures for the concentration for half-maximal inhibition (IC50) with human neutrophils [1] and at LTB4 receptor were 2600 nM and 370 nM, respectively. The inhibition at 10 µM in the test on human neutrophils [2] (10^-5 M, read-out: Chemotaxis (Boyden) percent inhibition) is 87%.

As to `CCCc1c(OCCCOc2ccc(C(=O)C(C)C)c(OC)c2CCC)ccc2c1OC(C(=O)O)CC2` (stereo not drawn) [Example 19, 3,4-dihydro-7-[3-[3-methoxy-4-(2-methyl-1-oxopropyl)-2-propylphenoxy]propoxy]-8-propyl-2H-1-benzopyran-2-carboxylic acid], the values for the concentration for half-maximal inhibition (IC50) in the test with human neutrophils [1] and on LTB4 receptor were 5000 nM and 1200 nM, respectively. In addition, the inhibition at 1 µM in the test with human neutrophils [2] (setting [6]) was 15%.

Regarding `C=CCc1c(OCCCOc2ccc3c(c2CCC)OC(C(=O)O)CC3)ccc(C(C)=O)c1OC` (stereo not drawn) [Example 5, 7-[3-[4-acetyl-3-methoxy-2-(2-propenyl)phenoxy]propoxy]-3,4-dihydro-8-propyl-2H-1-benzopyran-2-carboxylic acid], the concentration for half-maximal inhibition (IC50) turned out to be 400 nM in the test on human neutrophils [1], 100 nM on LTB4 receptor and 500 nM in the test on human neutrophils [2].

`CCCc1c(OCCCOc2ccc3c(c2CCC)OC(C)(CCC(=O)O)CC3=O)ccc(C(C)=O)c1OC` (stereo not drawn) [Example 16, 7-[3-(4-acetyl-3-methoxy-2-propylphenoxy)propoxy]-3,4-dihydro-2-methyl-4-oxo-8-propyl-2H-1-benzopyran-2-propanoic acid]: the “Receptor Binding LTD4 IC50” value at LTD4 receptor is recorded as “Inactive”. The inhibition at 10 µM is less than 45% on LTD4 receptor (setting [3]), 16.5% at LTD4 receptor (setting [4]) and 24.1% on LTD4 receptor (setting [5]). Also, the IC50 came out at 550 nM with human neutrophils [1], 250 nM at LTB4 receptor and 650 nM in the test on human neutrophils [2].

For the compound `CCCc1c(OCCCOc2ccc(C(C)=O)c(OC)c2CC2CC2)ccc2c1OC(C(=O)O)CC2` (stereo not drawn) [Example 3, 7-[3-[4-acetyl-2-(cyclopropylmethyl)-3-methoxyphenoxy]propoxy]-3,4-dihydro-8-propyl-2H-1-benzopyran-2-carboxylic acid], the concentration for half-maximal inhibition (IC50) amounted to 180 nM in the test with human neutrophils [1], 190 nM at LTB4 receptor and 200 nM in the test with human neutrophils [2].

In the case of `CCCc1c(OCCCOc2ccc(C(C)=O)c(OCC)c2CCC)ccc2c1OC(C(=O)O)CC2` (stereo not drawn) [Example 21, 7-[3-(4-acetyl-3-ethoxy-2-propylphenoxy)-propoxy]-3,4-dihydro-8-propyl-2H-1-benzopyran-2-carboxylic acid], the IC50 at LTB4 receptor was 1000 nM.

At LTB4 receptor, `CCCc1c(OCCCOc2ccc(C(C)=O)c(OC)c2CCC)ccc2c1OC(C(=O)NC)CC2` (stereo not drawn) [Example 8, 7-[3-(4-acetyl-3-methoxy-2-propylphenoxy)propoxy]-3,4-dihydro-N-methyl-8-propyl-2H-1-benzopyran-2-carboxamide] showed a 50% inhibitory concentration (IC50) of 1800 nM. Besides, in the test on human neutrophils [2] (setting [6]), the inhibition at 1 µM came out at 12%.

As to `CCCc1c(OCC(O)COc2ccc3c(=O)cc(C(=O)O)oc3c2CCC)ccc(C(C)=O)c1O` (stereo not drawn) [FPL 55712, reference compound], the 50% inhibitory concentration (IC50) at LTD4 receptor was 10400 nM. The inhibition at 10 µM on LTD4 receptor (read-out: LTD4 Receptor Binding Activity) is greater than 45%; on LTD4 receptor (read-out: LTD4 Receptor Binding Percent Inhibition, Test #1), 54.7%; at LTD4 receptor (read-out: LTD4 Receptor Binding Percent Inhibition, Test #2), 47%.

Regarding `CCCc1c(OCC#CCOc2ccc3c(c2CCC)OC(C)(CCC(=O)O)CC3=O)ccc(C(C)=O)c1OC` (stereo not drawn) [Example 17], the IC50 with human neutrophils [1] was 2100 nM; at LTB4 receptor it was 800 nM. Moreover, the inhibition at 1 µM in the test on human neutrophils [2] (setting [6]) is 31%.

In the case of `CCCc1c(OCCCOc2ccc3c(=O)cc(CCC(=O)O)oc3c2CCC)ccc(C(C)=O)c1OC` [Example 22, 7-[3-(4-acetyl-3-methoxy-2-propylphenoxy)propoxy]-4-oxo-8-propyl-4H-1-benzopyran-2-propanoic acid], the IC50 stood at 1600 nM with human neutrophils [1], 500 nM at LTB4 receptor and 1200 nM in the test on human neutrophils [2].
